Among the data in PubChem BioAssay (NCI) are TGI and GI50 values, retold here.

Some test systems named below: IGROV1 ovarian; NCI-H522 lung; MOLT-4 leukemia; SK-OV-3 ovarian; UACC-257 melanoma; SNB-19 CNS; DU-145 prostate; M14 melanoma; ACHN renal; NCI-H23 lung.
Holding throughout (test): NCI tumour cell line growth inhibition, 48 h

Where “and” joins values, the source holds several entries; their conditions need not be identical. Equal values may be shown once.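 Tested at 5 concentrations; 48 h exposure; 96-well plates; endpoints linearly interpolated, else capped at highest concentration. GI50 = concentration required for 50% inhibition of growth. TGI: total growth inhibition.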 Where a SMILES comes first, the peptide text is derived from it. The star is where a group is joined. Boc = CC(C)(C)OC(=O)*

`Oc1ccc2ccccc2c1N=Nc1ccc(Br)cc1`: the TGI with IGROV1 ovarian, in the assay with NCI-H522 lung, with MOLT-4 leukemia, with SK-OV-3 ovarian, in the assay with UACC-257 melanoma and with SNB-19 CNS was above 100 µM throughout. Moreover, the TGI with DU-145 prostate, in the assay with M14 melanoma, in the assay on ACHN renal and with NCI-H23 lung was above 100 µM each time.

For the compound `Cc1ccc(Nc2oc(-c3ccccc3)nc2[P+](c2ccccc2)(c2ccccc2)c2ccccc2)cc1`, the GI50 with IGROV1 ovarian is 0.889 µM; in the assay with NCI-H522 lung, 0.45 µM; in the assay on MOLT-4 leukemia, 0.563 µM; in the assay with SK-OV-3 ovarian, 1.58 µM; in the assay with UACC-257 melanoma, 0.718 µM; in the assay on SNB-19 CNS, 1.04 µM. Besides, the GI50 in the assay with DU-145 prostate is 1.34 µM; in the assay on M14 melanoma it was 0.728 µM; in the assay on ACHN renal, 0.988 µM; in the assay on NCI-H23 lung, 0.458 µM. Moreover, the TGI is 2.37 µM in the assay on IGROV1 ovarian; 1.79 µM in the assay on NCI-H522 lung; 2.52 µM in the assay with MOLT-4 leukemia; 3.69 µM in the assay with SK-OV-3 ovarian; 2.75 µM in the assay on UACC-257 melanoma; 2.94 µM in the assay on SNB-19 CNS. In addition, the TGI was found to be 4.16 µM with DU-145 prostate, 2.11 µM in the assay with M14 melanoma, 2.76 µM in the assay on ACHN renal and 2.08 µM in the assay on NCI-H23 lung.

On to `COC(=O)C(C)NC(=O)C(CCSC)NC(=O)C(Cc1ccccc1)NC(=O)OC(C)(C)C` (stereo not drawn) (Boc-Phe-Met-Ala-OMe; configuration not given here), for which the GI50 is 53.5 µg/mL in the assay with IGROV1 ovarian; 13.1 µg/mL in the assay with NCI-H522 lung; 18.6 µg/mL in the assay with MOLT-4 leukemia; 43.7 µg/mL with DU-145 prostate; 41.9 µg/mL in the assay with NCI-H23 lung. In addition, the TGI in the assay with IGROV1 ovarian was above 100 µM; in the assay on MOLT-4 leukemia it was 40.2 µg/mL and > 100 µM; in the assay with SK-OV-3 ovarian, above 100 µM; with UACC-257 melanoma, above 100 µM; with SNB-19 CNS, above 100 µM; with DU-145 prostate, above 100 µM. For the same compound, the TGI with M14 melanoma, in the assay on ACHN renal and in the assay with NCI-H23 lung was above 100 µM each time.

As to `COC(=O)c1ccc2c(c1)/C(=C\c1cc(Br)c(O)c(Br)c1)C(=O)N2`, the GI50 with IGROV1 ovarian was 7.29 µM; with NCI-H522 lung, 4.73 µM; with MOLT-4 leukemia it was 7.59 µM; in the assay with SK-OV-3 ovarian, 6.57 µM; in the assay with UACC-257 melanoma, 4.24 µM; in the assay with SNB-19 CNS, 12.4 µM. For the same compound, the GI50 with DU-145 prostate is 7.15 µM; with M14 melanoma, 1.88 µM; with ACHN renal it was 6.27 µM; in the assay on NCI-H23 lung, 7.22 µM. For the same compound, the TGI with IGROV1 ovarian was above 25 µM; with NCI-H522 lung it was 19.3 µM; with MOLT-4 leukemia it was above 24.1 µM; in the assay with SK-OV-3 ovarian, above 25 µM; in the assay on UACC-257 melanoma, 15.5 µM; in the assay with SNB-19 CNS, above 25 µM. For the same compound, the TGI with DU-145 prostate is above 25 µM; in the assay on M14 melanoma, 9.23 µM; in the assay on ACHN renal it was above 25 µM; with NCI-H23 lung, above 25 µM.

Consider `CC1(Br)Cc2ccccc2C1=O` (centres undefined), for which the TGI in the assay on IGROV1 ovarian was 15 µM; in the assay with NCI-H522 lung, 1.41 µM; in the assay on MOLT-4 leukemia it was 9.91 µM and 3.4 µM; in the assay on SK-OV-3 ovarian, 65.9 µM; with UACC-257 melanoma it was 29.2 µM; with SNB-19 CNS, 81.8 µM. For the same compound, the TGI in the assay on DU-145 prostate is 33.6 µM; with M14 melanoma, 4.4 µM; in the assay on ACHN renal it was 16.8 µM; in the assay with NCI-H23 lung it was 5.38 µM. For the same compound, the GI50 in the assay on NCI-H522 lung is 0.318 µM; in the assay on MOLT-4 leukemia it was 0.423 µM; in the assay on UACC-257 melanoma, 13.3 µM; in the assay on M14 melanoma, 1.08 µM; in the assay with NCI-H23 lung, 1.88 µM.
